Laboratory results as given in PMC8151276, “An Integrated Approach toward NanoBRET Tracers for Analysis of GPCR Ligand Engagement” (Molecules, 2021).

Assays:
Type in all cases: binding
EDNRA = biological target: T1, EDNRA (Homo sapiens, UniProt P25101); test: NanoBRET screen HiBiT-EDNRA in HEK293; settings: EDNRA
T1 construct: purchased Promega (in-house HiBiT-GPCR construct library, NanoBRET)
T1 sequence (P25101 21-427): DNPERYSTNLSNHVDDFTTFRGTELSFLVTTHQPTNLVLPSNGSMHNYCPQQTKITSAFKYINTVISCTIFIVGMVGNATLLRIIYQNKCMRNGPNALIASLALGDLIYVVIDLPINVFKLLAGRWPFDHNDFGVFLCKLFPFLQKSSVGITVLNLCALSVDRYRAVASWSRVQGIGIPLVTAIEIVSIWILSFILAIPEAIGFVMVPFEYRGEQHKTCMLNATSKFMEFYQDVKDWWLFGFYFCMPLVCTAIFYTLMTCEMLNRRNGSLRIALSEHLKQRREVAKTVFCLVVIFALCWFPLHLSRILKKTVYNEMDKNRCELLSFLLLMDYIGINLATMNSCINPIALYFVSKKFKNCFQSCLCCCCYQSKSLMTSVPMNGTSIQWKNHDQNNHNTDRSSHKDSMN
Procedure: (§1) Each tracer candidate was screened across the entire library of HiBiT-GPCR constructs using NanoBRET as the detection modality. As depicted in Figure 4A, the specificity of interactions was evaluated through decrease in BRET due to competitive displacement of a bound tracer by excess parental compound. Each tracer was analyzed for binding to each HiBiT-GPCR fusion in the absence and in the presence of competing parental compound. Briefly, HEK293 cells were transfected with HiBiT-GPCR constructs diluted into promoterless DNA to reduce expression and maximize translocation to the cell surface. Each tracer candidate was then screened at concentrations of 1 μM and 0.1 μM across cells expressing these fusions. Cells were treated for 1.5 h with tracer either alone or in the presence of 20 μM competing parental compound (i.e., control). BRET was measured upon addition of purified LgBiT and subsequent complementation with HiBiT genetically fused to a GPCR. The specificity of interactions was assessed through a decrease in BRET signal due to competitive displacement of the bound tracer. To further gauge the robustness of these interactions, the fold response over the control (i.e., BRETtracer/BRETcontrol) was calculated. We chose a 1.5-fold response, which translates to ≥7-fold signal over noise as the minimal threshold required to score an interaction as positive. […]. Below we highlight the screening results obtained for our exemplary fluorescent tracers based on Clozapine, Amitriptyline and AZD1283.
(§2) HiBiT-GPCR DNA constructs were diluted in 10 mM Tris pH 8 to a final concentration of 0.01 μg/μL, arrayed in 96-well plates and stored at −20 °C. For transfection, HEK293 cells were suspended in Opti-MEM (without phenol red) supplemented with 2% fetal bovine serum (Seradigm) and 100 units/mL penicillin–streptomycin (Gibco) at a final concentration of 220,000 cells/mL and dispensed into white 96-well plates at 90 μL/well. Subsequent transfections and screens were carried using an Agilent Bravo Automated Liquid Handling Platform. First, the 96-well HiBiT DNA arrays were diluted 25-fold in Opti-MEM (without serum or phenol red) to a final concentration of 0.0004 μg/μL and 20 μL of the diluted DNAs were transferred into new 96-well plates. Next, promoterless carrier DNA (1 μg/μL) was diluted 25-fold (0.04 μg/μL) and then dispensed into the diluted arrays at 20 μL/well. Following brief mixing, Viafect transfection reagent (Promega) diluted 16-fold into Opti-MEM was dispensed into the plates at 40 μL/well. After mixing by pipetting, plates were incubated for 10 min on the pipetting station deck. The DNA-transfection reagent complexes were then added to plates containing cells. To facilitate the screen, 10 μL of DNA-transfection reagent complexes were added in duplicates to the top 4 and bottom 4 rows, resulting in two identical 48-well arrays per plate. Plates with transfected cells were incubated for 18–20 h at 37 °C/5% CO2. A screen of each tracer across the entire library using two different concentrations requires duplicate plates of transfected cells. Depending on the number of tracers being screened, transfections can be scaled up using the same ratios. The next day, for each tracer, four 20× screening solutions in tracer dilution buffer (Promega) were prepared: two duplicates at final concentration of 20 μM and two duplicates at a final concentration of 2 μM. A competing unmodified compound was added to one of each duplicate at a final concentration of 400 μM. The four resulting solutions were diluted 4-fold in Opti-MEM without serum or phenol red to generate 5× solutions (5 µM and 0.5 µM tracer +/− 100 μM competing compound). To screen the library, a BioTek MultiFlo FX liquid dispenser was used to dispense 22.5 µL of tracer solution to the top 4 rows and 22.5 µL tracer + competing compound solution to the 4 bottom rows. Plates were briefly mixed on an orbital shaker and incubated for 1.5 h at room temperature. […]

FZD8 = biological target: T2, FZD8 (Homo sapiens, UniProt Q9H461); test: NanoBRET screen HiBiT-FZD8 in HEK293; settings: FZD8
T2 construct: purchased Promega (in-house HiBiT-GPCR construct library, NanoBRET)
Procedure: as §1, §2

SSTR3 = biological target: T3, SSTR3 (Homo sapiens, UniProt P32745); test: NanoBRET screen HiBiT-SSTR3 in HEK293; settings: SSTR3
T3 construct: purchased Promega (in-house HiBiT-GPCR construct library, NanoBRET)
Procedure: as §1, §2

T2 sequence (Q9H461 28-694): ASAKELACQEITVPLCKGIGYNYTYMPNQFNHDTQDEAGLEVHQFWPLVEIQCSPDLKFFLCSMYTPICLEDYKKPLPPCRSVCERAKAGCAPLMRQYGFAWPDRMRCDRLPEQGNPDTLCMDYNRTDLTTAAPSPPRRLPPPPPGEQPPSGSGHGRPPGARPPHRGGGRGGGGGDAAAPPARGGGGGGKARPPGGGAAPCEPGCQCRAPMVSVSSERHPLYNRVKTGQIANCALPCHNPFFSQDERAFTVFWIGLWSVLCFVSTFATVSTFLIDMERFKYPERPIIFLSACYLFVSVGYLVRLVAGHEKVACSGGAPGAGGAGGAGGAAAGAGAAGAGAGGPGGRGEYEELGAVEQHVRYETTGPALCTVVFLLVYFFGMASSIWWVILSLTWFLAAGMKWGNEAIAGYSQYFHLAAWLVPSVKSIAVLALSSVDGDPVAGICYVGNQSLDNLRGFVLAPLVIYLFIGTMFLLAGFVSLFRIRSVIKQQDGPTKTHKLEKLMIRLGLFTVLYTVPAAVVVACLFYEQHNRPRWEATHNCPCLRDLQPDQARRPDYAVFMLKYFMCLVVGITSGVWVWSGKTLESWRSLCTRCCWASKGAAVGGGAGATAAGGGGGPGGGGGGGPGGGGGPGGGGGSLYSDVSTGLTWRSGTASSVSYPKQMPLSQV
T3 sequence (P32745 whole entry): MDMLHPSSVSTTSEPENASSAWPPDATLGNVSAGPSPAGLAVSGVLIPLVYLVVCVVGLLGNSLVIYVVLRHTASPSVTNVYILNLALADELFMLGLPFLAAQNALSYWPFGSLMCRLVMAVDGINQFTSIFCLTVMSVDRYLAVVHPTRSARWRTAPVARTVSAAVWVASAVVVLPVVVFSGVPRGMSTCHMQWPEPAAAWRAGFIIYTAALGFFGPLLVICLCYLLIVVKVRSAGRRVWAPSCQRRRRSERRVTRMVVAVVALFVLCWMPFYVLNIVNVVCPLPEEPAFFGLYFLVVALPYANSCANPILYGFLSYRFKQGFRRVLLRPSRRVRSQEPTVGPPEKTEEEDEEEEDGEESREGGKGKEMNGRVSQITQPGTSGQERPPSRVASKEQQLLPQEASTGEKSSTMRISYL

Row | Compound | NanoBRET Fold Response (EDNRA; tracer 0.1μM) | NanoBRET Fold Response (EDNRA; tracer 1μM) | NanoBRET Fold Response (FZD8; tracer 0.1μM) | NanoBRET Fold Response (FZD8; tracer 1μM) | NanoBRET Fold Response (SSTR3; tracer 0.1μM) | NanoBRET Fold Response (SSTR3; tracer 1μM) | other results
1 | CN1CCN(C2=Nc3cc(Cl)ccc3Nc3ccc(CNC(=O)CCOCCOCCOCCOCCNC(=O)CCc4ccc5n4[B-](F)(F)[N+]4=C(c6ccc[nH]6)C=CC4=C5)cc32)CC1 [Clozapine-b-2-NB590] | – | – | – | – | – | – | NanoBRET Fold Response (EDNRA; 0.1μM tracer): 0.99; NanoBRET Fold Response (EDNRA; 1μM tracer): 1.03; NanoBRET Fold Response (FZD8; 0.1μM tracer): 1.00; NanoBRET Fold Response (FZD8; 1μM tracer): 1.02; NanoBRET Fold Response (SSTR3; 0.1μM tracer): 0.99; NanoBRET Fold Response (SSTR3; 1μM tracer): 1.02
2 | CN1CCN(C2=Nc3cc(Cl)ccc3N(CC(=O)NCCOCCOCCOCCOCCNC(=O)CCc3ccc4n3[B-](F)(F)[N+]3=C(c5ccc[nH]5)C=CC3=C4)c3ccccc32)CC1 [Clozapine-c-2-NB590] | – | – | – | – | – | – | NanoBRET Fold Response (EDNRA; 0.1μM tracer): 0.99; NanoBRET Fold Response (EDNRA; 1μM tracer): 0.87; NanoBRET Fold Response (FZD8; 0.1μM tracer): 0.97; NanoBRET Fold Response (FZD8; 1μM tracer): 1.04; NanoBRET Fold Response (SSTR3; 0.1μM tracer): 0.95; NanoBRET Fold Response (SSTR3; 1μM tracer): 1.02
3 | O=C(CCOCCOCCOCCOCCNC(=O)CCc1ccc2n1[B-](F)(F)[N+]1=C(c3ccc[nH]3)C=CC1=C2)NCCCN1CCN(C2=Nc3ccccc3Oc3ccc(Cl)cc32)CC1 [Loxapine-a-2-NB590] | 1.05 | 0.85 | 0.95 | 1.01 | 1.01 | 1.25 | –
4 | COc1ccccc1N1CCN(CCCCN2C(=O)c3ccc(CNC(=O)CCOCCOCCOCCOCCNC(=O)CCc4ccc5n4[B-](F)(F)[N+]4=C(c6ccc[nH]6)C=CC4=C5)cc3C2=O)CC1 [NAN-190-2-NB590] | 1.02 | 1.05 | 0.95 | 1.03 | 1.00 | 1.05 | –
5 | COc1ccccc1N1CCN(CCCCN2C(=O)c3ccc(CNC(=O)CCOCCNC(=O)c4ccc(CNC(=O)CCc5ccc6n5[B-](F)(F)[N+]5=C(c7ccc[nH]7)C=CC5=C6)cc4)cc3C2=O)CC1 [NAN-190-3-NB590] | 1.01 | 1.21 | 1.20 | 0.87 | 1.07 | 0.93 | –
6 | O=C(CCc1ccc2n1[B-](F)(F)[N+]1=C(c3ccc[nH]3)C=CC1=C2)NCc1ccc(C(=O)NCCOCCC(=O)N[C@@H]2CC[C@@]3(O)[C@H]4Cc5ccc(O)c6c5[C@@]3(CCN4CC3CC3)[C@H]2O6)cc1 [Naltrexone-3-NB590] | 1.00 | 0.98 | 0.90 | 0.78 | 0.97 | 1.01 | –
7 | Cc1cc2c(s1)Nc1ccccc1N=C2N1CCN(CCCNC(=O)CCOCCOCCOCCOCCNC(=O)CCc2ccc3n2[B-](F)(F)[N+]2=C(c4ccc[nH]4)C=CC2=C3)CC1 [Olanzapine-a-2-NB590] | 1.02 | 1.10 | 0.95 | 0.94 | 0.99 | 1.04 | –
8 | O=C(CCc1ccc2n1[B-](F)(F)[N+]1=C(c3ccc[nH]3)C=CC1=C2)NCc1ccc(C(=O)NCCOCCOCCNCC(O)COc2cccc3ccccc23)cc1 (stereo not drawn) [Propranolol-3-NB590] | – | – | – | – | – | – | NanoBRET Fold Response (EDNRA; 0.1μM): 0.97; NanoBRET Fold Response (EDNRA; 1μM): 1.03; NanoBRET Fold Response (FZD8; 0.1μM): 1.01; NanoBRET Fold Response (FZD8; 1μM): 1.02; NanoBRET Fold Response (SSTR3; 0.1μM): 0.99; NanoBRET Fold Response (SSTR3; 1μM): 1.01
